Test results taken from patent US10898522B2, “Compositions and methods for treating graft versus host disease” (Children's Research Institute, Children's National Medical …, priority 2015, dated 2021).
Entries after “also recorded” stand apart in the source; their conditions may differ.

Experiments:
[1] = system: FoxP3+ human T cells (Treg); assay: FACS of FoxP3+ cells within CD4 T cell subset from spleen and BM of GvHD mice; type: in vivo; conditions: one dose of 100 μg/kg echinomycin vs vehicle
Excerpt: (§1) FIG. 4. HIF-1α accumulates in a high proportion of human T cells derived from spleen and BM of the recipients of human BMC: Impact of echinomycin. Panel A. Representative FACS plots showing the accumulation of HIF-1α in T cells from the spleen and BM of GvHD mice. Spleen and BM cells were isolated from the spleens and BM of GvHD mice, stained with anti-human CD45, CD4, CD8, and then intracellular stained with anti-human HIF-1α. Panel B. Representative FACS plots showing the accumulation of HIF-1α in all human cells from spleens of GvHD mice. Spleen cells were isolated from the spleens of GvHD mice, stained with anti-human CD45, CD4, CD8, and then intracellular stained with anti-human HIF-1α. FACS analysis was performed to determine the percentage of HIF-1α positive cells in CD45^+CD4^+CD8-, CD45^+CD4-D8^+ and CD45^+CD4-D8-subpopulations. Panel C. Representative FACS plots showing the percentage of HIF-1α positive T cells in spleen of GvHD mice after echinomycin treatment. […]
(§2) Spleens were gently grinded with frosted objective slides and bone marrow was dissociated with syringes to obtain single-cell suspensions and passed through a nylon cell strainer, washed three times with RPMI-1640, labeled with antibodies and analyzed for the presence of different human cell populations. […]

[2] = system: HIF-1α / leukemia stem cells; conditions: in vivo; cited from earlier work
HIF-1α [3] = assay: Western blot of human HIF-1α in spleen cells from GvHD mice after echinomycin; type: in vivo; conditions: echinomycin-treated GvHD mice compared to vehicle controls
Excerpt: as §1
To test the significance of HIF-1α accumulation, GvHD recipient mice were treated with echinomycin, a selective inhibitor of HIF-1α. […] Further, spleen cells from GvHD mice were isolated and human HIF-1α protein levels from echinomycin-treated mice and vehicle controls were measured by western blot analysis. […]

HIF-1α [4] = assay: Intracellular FACS staining of HIF-1α in human T cells from spleen of GvHD mice after echinomycin; type: in vivo
Excerpt: as §1, §2

humanized GvHD mice = assay: Treatment of humanized GvHD mice (newborn NSG pups transplanted with human BM cells) with echinomycin; type: in vivo, mouse
Method: FIG. 5. Sustained treatment of echinomycin protects mice against GvHD and eliminates expanded human leukocytes and inflammation. Panel A. Dosing regimen of echinomycin treatment for humanized GvHD mice. The day that mice were transplanted with human BM cells is defined as day 0. Each arrow represents one echinomycin treatment. The dose for each treatment is 10 μg/kg via intraperitoneal injection. Panel B. Longitudinal analysis of clinical representation of an echinomycin-treated mice. Panel C. Representative FACS plots showing the percentage of human CD45^+ cells in PBL of GvHD mice before and after echinomycin treatment. Data is one representative file from 3 mice and representative of three independent experiments. […] Data are representative of three independent experiments.
FIG. 6. Echinomycin protects mice against lethal GvHD. Panel A. Newborn NSG pups were transplanted with human 5×10^5 BM cells. The mice were treated with the dosing regimen of echinomycin listed in FIG. 5, Panel A. Panel B. Newborn NSG pups were transplanted with human 3×10^5 BM cells. The mice were treated with the dosing regimen of echinomycin listed in FIG. 5, Panel A, except treatment is started at day 17 rather than day 27. […] Data are representative of three independent experiments.
Human bone marrow mononuclear cells were isolated from healthy human adult bone marrow using density gradient separation were purchased from Stemcell Technologies (Vancouver, Canada) and Lonza (Walkersville, Md., USA). Human CD3^+ cells from BM were sorted from human BM cells using BD Influx (BD Biosciences). Cells were thawed, counted and re-suspended in 1×PBS in a concentration of 0.1-0.5×10^6 per 30 μl. 0.1-0.5×10^6 cells were transplanted via intrahepatic injection into irradiated (1.30 Gy) newborn NSG pups. Human CD45^+ cells in PBMC of recipients were detected by FACS analysis at day 17 to 20 after transplantation.
Peripheral blood was collected by sub-mandibular bleeding at different times after transplantation of human BM cells. Fluorochrome-labeled antibodies were directly added into whole blood. After 30 min of staining, the unbound antibodies were washed away and the red blood cells were lysed with BD FACS™. The stained cells were analyzed with BD FACS Canto II flow cytometry.
Immunohistochemistry was performed on tissue sections from skin, liver, lung, spleen, and kidney of humanized NSG mice. Sections were fixed with 4% paraformaldehyde and dehydrated with graded alcohol. After treatment with heated citrate buffer for antigen retrieval, sections were blocked for endogenous peroxidase activity. Sections were then incubated in 10% goat serum followed by primary antibodies at 4° C. overnight. Fixed samples were stained with the following antibodies, anti-human CD45 (MEM-28) and CD3 (ab828, Abcam PLC, Cambridge, Mass.), for detection of infiltrated human cells. After incubation for 30 minutes with secondary antibody, the specimens were visualized by DAB treatment. Sections were lightly counterstained with hematoxylin to enable visualization of nuclei.
Newborn NSG pups received 0.3-0.5×10^6 human BM cells intrahepatically. Beginning on day 17 or 27, the recipients received 5 intraperitoneal injections of echinomycin, daily at 10 μg/kg. Following 2 days of rest, another 5 intraperitoneal injections of echinomycin were administered at the same dose, once per day. The second round of treatment was performed following 5 days of rest from the prior round of treatment, using the same dose once every other day for 10 total treatments.
To better understand the importance of HIF-1α in the therapy of GvHD, the effect of HIF-1α inhibition was examined. Newborn pups were transplanted with 0.5×10^6 human BM cells via intra-hepatic injection. Twenty-seven days after transplantation, mice were treated with 10 μg/kg of echinomycin for a total of 20 treatments. […]

## CS[C@H]1SC[C@H]2C(=O)N(C)[C@@H](C(C)C)C(=O)OC[C@@H](NC(=O)c3cnc4ccccc4n3)C(=O)N[C@@H](C)C(=O)N(C)[C@@H]1C(=O)N(C)[C@@H](C(C)C)C(=O)OC[C@@H](NC(=O)c1cnc3ccccc3n1)C(=O)N[C@@H](C)C(=O)N2C [echinomycin]
[1]
  proportion of Tregs (FoxP3+ cells within CD4 T cell subset): no apparent difference
[1]; listed as Echinomycin
  proportion of Tregs (FoxP3+ cells within CD4 T cell subset): does not expand human Treg
[2]
  adverse reactions towards hematopoietic stem cells: without adverse reactions
  efficacy in experimental leukemia and lymphoma: effective in treating experimental leukemia and lymphoma
HIF-1α [3]
  HIF-1α protein levels in spleen cells (western blot): significantly decreased
HIF-1α [4]; single dose of 100 μg/kg echinomycin, overnight
  HIF-1α protein in HIF-1α+ T cells of spleen (FACS): lost HIF-1α protein overnight
HIF-1α [4]; single dose of echinomycin
  T cell frequencies: largely unaffected
Humanized GvHD mice; 0.3×10^6 human BM cells, treatment started day 17, 10 μg/kg i.p.
  median survival: 119 days
Humanized GvHD mice; 0.5×10^6 BM cells, 10 μg/kg, 20 treatments from day 27, all vehicle treated mice died
  survival during the treatment period: survived
Humanized GvHD mice; 0.5×10^6 human BM cells, 10 μg/kg i.p. from day 27, over 5 weeks
  reduction of number of human leukocytes in the peripheral blood: more than 10 fold
Humanized GvHD mice; 0.5×10^6 human BM cells, treatment started day 27, 10 μg/kg i.p.
  median survival: 99 days
Humanized GvHD mice; 3×10^5 or 5×10^5 BM cells, regimen of FIG. 5 Panel A
  life span (Kaplan-Meier survival curve) compared with vehicle: significantly prolonged life span
Humanized GvHD mice; continuous treatment of echinomycin
  mice protected against lethal GvHD: ~100%
Humanized GvHD mice; one treated mouse, after two weeks of treatments, 10 μg/kg from day 27
  clinical symptoms (skin, hair): regained smooth skin with visible regrowth of hair
Humanized GvHD mice; skin, intestine, liver and lung, 10 μg/kg i.p. from day 27, day 75
  human CD3+ T cells in organs (IHC): elimination of T cells from all major organs; also recorded: significant reduction of CD3^+ cells
Humanized GvHD mice; treatment started day 17 vs day 27
  life span longer than that of mice treated starting at Day 27: 20 days
